Earlier results in patent US8092782B2, “Polybiotin compounds of magnetic resonance imaging and drug delivery” (priority 2003, dated 2012).

## triacetyl-beta-cyclodextrin
  solubility in water: insoluble
